Experimental data reported in US20240246935A1 (Plexium, Inc., priority 2021, published 2024).

What was measured:
[1] = molecular target: human E3 ligase component cereblon (CRBN) (Homo sapiens (Human), UniProt Q96SW2); test: Cereblon (CRBN) target engagement, NanoBRET TE Intracellular E3 Ligase Assay in transfected HEK-293T cells; conditions: read-out: CRBN Binding EC50
Description: HEK293T cells were harvested ca. 75% confluent with trypsin and plated (500,000 cells/well) in a 6-well tissue culture plate in 2 mL of Dulbecco's Modified Eagle Medium (DMEM)+10% Fetal Bovine Serum (FBS) and incubated overnight at 37° C.
The NanoLuc-CRBN fusion vector (Nluc-CRBN; Promega) contains the coding region of human E3 ligase component cereblon (CRBN) fused to the C-terminus of the NanoLuc luciferase coding region. A mixture of 10 ng Nluc-CRBN and 990 ng DDB1 Expression Vector (Promega) was added to 125 μL Opti-Minimum Essential Medium (Opti-MEM™; Thermo Fisher) along with 2 μL P3000 reagent (Thermo Fisher) in a 1.5 mL epppendorf tube. This solution was added to Lipofectamine 3000 transfection reagent (5 μL; Thermo Fisher) in Opti-MEM (125 μL), mixed well, and incubated for 15 minutes at room temperature. The transfection mixture was added dropwise to cells and incubated overnight at 37° ° C., 5% CO2. Following transfection, cells were washed once with PBS, and trypsin (250 μL) was added and incubated 30-45 sec to dislodge cells. Complete media (2 mL) was added to resuspend cells to form a single cell suspension. Cells were centrifuged at 320×g for 5 min at room temperature, the supernatant was removed, and the cell pellet resuspended in Opti-MEM (3 mL; wash step repeated×2). After final resuspension in 5 mL Opti-MEM, cells were counted and resuspended at 200,000 cells/mL in Opti-MEM.
Cereblon target engagement was monitored by Bioluminescence Resonance Energy Transfer (BRET) in transfected HEK-293T cells using the NanoBRET TE Intracellular E3 Ligase Assay (Promega). Briefly, 384-well plates (white opaque plates, Corning 3574, low binding surface) were seeded with transfected HEK-293T cells (38 μL/well). 2 μL of 10 μM CRBN tracer (diluted 1:5 in Tracer Dilution Buffer) was added to each well. Plates were centrifuged at 320×g for 1 min at room temperature. Test compounds were added in a 11-point dilution series (typically 10 μM to […]) using a TECAN D300e Digital Dispenser. Plates were shaken for 2 minutes on a microplate shaker to mix compounds. Plates were centrifuged at 320×g for 1 min at room temperature, and subsequently incubated for 2 hours at 37° C.
After incubation, plates were allowed to cool to room temperature for 15 minutes. 20 μL of 3× Complete NanoBRET™ Nano-Glo® Substrate plus Inhibitor Solution (Promega, 1:166 Substrate and 1:500 dilution of Extracellular NanoLuc® Inhibitor diluted in Opti-MEM) were added to each well. Plates were incubated with shaking at room temperature for 3 minutes covered with foil. Plates were read on a CLARIOstar microplate reader (BMG LabTech), measuring at 450 nm (donor emission) and 610 nm (acceptor emission). The IC50 values were determined by regression to best fit four-parameter logistic curves using GraphPad Prism.

IKZF2 (Helios) = test: IKZF2 reporter degradation assay (HEK 293T IKZF2-mNeonGreen reporter cell line); assay type: cell-based, human; conditions: 1 μM compound, 24 hour incubation, HEK 293T IKZF2-mNeonGreen reporter
Description: Polycistronic plasmids were constructed for the mammalian expression of fluorescent reporter fusions of human transcription factors IKZF1 (Ikaros), IKZF2 (Helios), and IKZF3 (Aiolos). The respective protein sequences had their C-terminal end joined to a GGGGS linker repeated three times followed by mNeonGreen, P2A sequence, and mScarlet. The DNA sequences of the open reading frames are as follows:
IKZF1, IKZF2, and IKZF3 constructs were cloned into the UCOE Hygromycin expression vectors (Millipore Sigma). Reporter constructs were transfected using cationic lipid reagents into adherent HEK 293T cells and stable integrants were selected by treatment with 200 μg/mL hygromycin B. Clonal populations were obtained from the population of stable integrants either by limiting dilution or fluorescence activated cell sorting.
The clonal stable cell lines were maintained under constant 200 μg/mL hygromycin B selection while being passaged for use in the degradation assays. […] The fluorescence intensity of the IKZF1/2/3-mNeonGreen (FITC channel) and mScarlet (PE channel) reporters were routinely analyzed by flow cytometry to confirm consistent expression levels between experiments.
The IKZF1/IKZF2/IKZF3 degradation assays were carried out by harvesting the HEK 293T reporter cell lines and resuspending the cells in media formulated for reduced background fluorescence (FluoroBrite; Thermo Fisher). The respective cell lines were seeded at a density of 4000 cells/well into black-walled 384-well optical grade assay tissue culture plates. The cells were incubated overnight at 37° C. to allow for attachment to the assay plate. Dilutions of the compounds were prepared in DMSO from 10 mM compound stocks. The assay plates were treated with appropriate concentrations of the compounds by dispensing the DMSO dilutions in quadruplicate wells with an upper limit of 0.5% final DMSO.
After 24 hour incubation with the compounds, the assay plates were imaged on an ImageXpress Pico microscopy system (cells maintained at 37° C. during imaging) to obtain the fluorescent readouts. The assay plates were imaged in the FITC and Tetramethylrhodamine (TRITC) channels to obtain the mNeonGreen fluorescence intensity (reporter degradation data) and mScarlet fluorescence intensity (for cell segmentation). 293T-IKZF1 and 293T-IKZF3 reporter cell lines were imaged with exposures of 500 milliseconds (ms) for both FITC and TRITC channels, while the 293T-IKZF2 reporter cell line was imaged with exposures of 1000 ms for FITC and 1250 ms for TRITC. The resulting data was analyzed with Cell Reporter Xpress software using the 2-channel cell scoring analysis with a “percent positive” readout. The TRITC channel was selected for the “nuclei” segmentation with a threshold of 20 while the FITC channel was selected for the “Marker 1” segmentation and a threshold of 100 for the IKZF1 and IKZF3 reporter lines. […] The minimum segmentation width was set to 6 micrometers and the maximum segmentation width was set to 15 micrometers for all cell lines. The DCs calculations were determined by regression to best fit four-parameter logistic curves using GraphPad Prism.

human E3 ligase component cereblon (CRBN), sequence (Q96SW2 whole entry): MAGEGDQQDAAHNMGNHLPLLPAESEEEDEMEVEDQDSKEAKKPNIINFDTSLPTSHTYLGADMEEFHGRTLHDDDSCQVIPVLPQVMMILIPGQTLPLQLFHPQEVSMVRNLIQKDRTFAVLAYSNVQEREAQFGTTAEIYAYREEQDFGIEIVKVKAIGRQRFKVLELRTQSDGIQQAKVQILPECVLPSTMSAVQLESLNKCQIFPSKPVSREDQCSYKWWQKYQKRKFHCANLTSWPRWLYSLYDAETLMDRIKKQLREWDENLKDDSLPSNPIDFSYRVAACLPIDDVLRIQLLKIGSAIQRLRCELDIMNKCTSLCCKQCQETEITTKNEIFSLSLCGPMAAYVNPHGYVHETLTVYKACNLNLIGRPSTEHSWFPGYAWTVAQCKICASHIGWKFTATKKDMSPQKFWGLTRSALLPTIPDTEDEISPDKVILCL
human E3 ligase component cereblon (CRBN), sequence (Q16531 whole entry partner): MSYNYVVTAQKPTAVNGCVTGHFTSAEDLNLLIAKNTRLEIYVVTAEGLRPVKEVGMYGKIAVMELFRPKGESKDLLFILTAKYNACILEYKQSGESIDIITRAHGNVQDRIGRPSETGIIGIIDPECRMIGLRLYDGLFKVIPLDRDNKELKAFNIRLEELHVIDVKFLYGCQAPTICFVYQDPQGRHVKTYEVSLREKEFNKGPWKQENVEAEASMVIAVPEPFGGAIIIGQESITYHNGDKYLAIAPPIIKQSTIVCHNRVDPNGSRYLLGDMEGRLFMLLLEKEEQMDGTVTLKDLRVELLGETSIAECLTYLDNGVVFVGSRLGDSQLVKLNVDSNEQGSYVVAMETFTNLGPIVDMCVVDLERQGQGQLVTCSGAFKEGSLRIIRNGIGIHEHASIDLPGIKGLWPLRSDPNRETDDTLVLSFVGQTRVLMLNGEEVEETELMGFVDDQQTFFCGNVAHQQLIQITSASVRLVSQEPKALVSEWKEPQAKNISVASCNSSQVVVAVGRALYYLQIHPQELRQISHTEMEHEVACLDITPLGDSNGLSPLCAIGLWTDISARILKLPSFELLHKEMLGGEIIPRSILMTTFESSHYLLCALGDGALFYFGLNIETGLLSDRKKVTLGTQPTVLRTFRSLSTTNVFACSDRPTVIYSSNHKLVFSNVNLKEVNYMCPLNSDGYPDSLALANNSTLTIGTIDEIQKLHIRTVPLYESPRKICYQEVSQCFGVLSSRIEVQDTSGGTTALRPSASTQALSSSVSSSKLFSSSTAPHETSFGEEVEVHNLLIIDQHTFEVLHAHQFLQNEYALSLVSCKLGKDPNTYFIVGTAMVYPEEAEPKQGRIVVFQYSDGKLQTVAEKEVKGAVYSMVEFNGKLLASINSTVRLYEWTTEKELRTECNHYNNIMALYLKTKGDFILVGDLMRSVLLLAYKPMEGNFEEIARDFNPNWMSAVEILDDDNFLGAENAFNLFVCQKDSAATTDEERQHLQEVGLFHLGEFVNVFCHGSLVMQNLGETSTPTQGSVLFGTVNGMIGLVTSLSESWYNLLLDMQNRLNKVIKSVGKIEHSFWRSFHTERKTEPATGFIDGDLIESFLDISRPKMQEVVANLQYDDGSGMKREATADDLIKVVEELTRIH

Row | Compound | EC50 [1] | IKZF2 % Degradation @ 1 μM (IKZF2 (Helios))
1 | N#Cc1ccc(C2CN(C3CCCC3Oc3ccc4c(c3)CN(C3CCC(=O)NC3=O)C4=O)C2)cc1F (stereo not shown) [Compound 110, 4-(1-(2-((2-(2,6-dioxopiperidin-3-yl)-1-oxoisoindolin-5-yl)oxy)cyclopentyl)azetidin-3-yl)-2-fluorobenzonitrile] | 19 nM | 48.8%
2 | O=C1CCC(N2Cc3cc(O[C@H]4CCCC[C@H]4N4CCC4c4ccccc4)ccc3C2=O)C(=O)N1 (stereo partly drawn) [Compound 56, 3-(1-oxo-5-(((1S,2R)-2-(2-phenylazetidin-1-yl)cyclohexyl)oxy)isoindolin-2-yl)piperidine-2,6-dione] | 239 nM | <15%
3 | N#Cc1ccc(C2CN([C@H]3CCCC[C@@H]3Oc3ccc4c(c3)CN(C3CCC(=O)NC3=O)C4=O)C2)c(Cl)c1 (mixture of isomers) [Compound 74, Rac-3-chloro-4-(1-((trans)-2-((2-(2,6-dioxopiperidin-3-yl)-1-oxoisoindolin-5-yl)oxy)cyclohexyl)azetidin-3-yl)benzonitrile] | 20 nM | 63%
4 | N#Cc1ccc(C2CN(C3CCCCC3Oc3ccc4c(c3)CN(C3CCC(=O)NC3=O)C4=O)C2)cc1 (stereo not shown) [Compound 117, 4-(1-(2-((2-(2,6-dioxopiperidin-3-yl)-1-oxoisoindolin-5-yl)oxy)cyclohexyl)azetidin-3-yl)benzonitrile] | 31 nM | <15%
5 | N#Cc1ccc(C2CN([C@@H]3CCCC[C@@H]3Oc3ccc4c(c3)CN(C3CCC(=O)NC3=O)C4=O)C2)cc1F (mixture of isomers) [Compound 122, rac-4-(1-((cis)-2-((2-(2,6-dioxopiperidin-3-yl)-1-oxoisoindolin-5-yl)oxy)cyclohexyl)azetidin-3-yl)-2-fluorobenzonitrile] | 20 nM | <15%
6 | O=C1CCC(N2Cc3cc(O[C@H]4CCC[C@@H]4N4CCC(c5ccccc5)C4)ccc3C2=O)C(=O)N1 (stereo partly drawn) [Compound 121, 3-(1-oxo-5-(((1S,2S)-2-(3-phenylpyrrolidin-1-yl)cyclopentyl)oxy)isoindolin-2-yl)piperidine-2,6-dione] | 6 nM | 75.9%
7 | N#Cc1cc(F)ccc1C1CN([C@H]2CCCC[C@@H]2Oc2ccc3c(c2)CN(C2CCC(=O)NC2=O)C3=O)C1 (single isomer, unassigned) [Compound 45] | 22 nM | 88%
8 | O=C1CCC(N2Cc3cc(O[C@H]4CCCC[C@@H]4N4CC(c5ccc(OC(F)(F)F)cc5)C4)ccc3C2=O)C(=O)N1 (mixture of isomers) [Compound 60, Rac-3-(1-oxo-5-(((trans)-2-(3-(4-(trifluoromethoxy)phenyl)azetidin-1-yl)cyclohexyl)oxy)isoindolin-2-yl)piperidine-2,6-dione] | 15 nM | 84.9%
9 | N#Cc1cc(Cl)ccc1C1CN([C@H]2CCC[C@H]2Oc2ccc3c(c2)CN(C2CCC(=O)NC2=O)C3=O)C1 (mixture of isomers) [Compound 84, Rac-5-chloro-2-(1-((cis)-2-((2-(2,6-dioxopiperidin-3-yl)-1-oxoisoindolin-5-yl)oxy)cyclopentyl)azetidin-3-yl)benzonitrile] | 14 nM | <15%
10 | O=C1CCC(N2Cc3cc(O[C@H]4CCCC[C@@H]4N4CCC(c5ccccc5)CC4)ccc3C2=O)C(=O)N1 (stereo partly drawn) [Compound 79, 3-(1-oxo-5-(((1S,2S)-2-(4-phenylpiperidin-1-yl)cyclohexyl)oxy)isoindolin-2-yl)piperidine-2,6-dione] | 12 nM | <15%
11 | O=C1CCC(N2Cc3cc(O[C@H]4CCCC[C@@H]4N4CC(c5cccc(C(F)(F)F)c5)C4)ccc3C2=O)C(=O)N1 (mixture of isomers) [Compound 62, Rac-3-(1-oxo-5-(((trans)-2-(3-(3-(trifluoromethyl)phenyl)azetidin-1-yl)cyclohexyl)oxy)isoindolin-2-yl)piperidine-2,6-dione] | 46 nM | 87.5%
12 | N#Cc1ccc(C2CN([C@H]3CCCC[C@@H]3Oc3ccc4c(c3)CN(C3CCC(=O)NC3=O)C4=O)C2)cc1F (mixture of isomers) [Compound 119, Rac-4-(1-((trans)-2-((2-(2,6-dioxopiperidin-3-yl)-1-oxoisoindolin-5-yl)oxy)cyclohexyl)azetidin-3-yl)-2-fluorobenzonitrile] | 8 nM | 63.8%
13 | O=C1CCC(N2Cc3cc(O[C@H]4CCCC[C@@H]4N4CC(c5ccc(C(F)(F)F)cc5)C4)ccc3C2=O)C(=O)N1 (stereo partly drawn) [Compound 58, 3-(1-oxo-5-(((1S,2S)-2-(3-(4-(trifluoromethyl)phenyl)azetidin-1-yl)cyclohexyl)oxy)isoindolin-2-yl)piperidine-2,6-dione] | 71 nM | 85.8%
14 | N#Cc1cc(Cl)ccc1C1CN([C@H]2CCCC[C@@H]2Oc2ccc3c(c2)CN(C2CCC(=O)NC2=O)C3=O)C1 (mixture of isomers) [Compound 99, Rac-5-chloro-2-(1-((trans)-2-((2-(2,6-dioxopiperidin-3-yl)-1-oxoisoindolin-5-yl)oxy)cyclohexyl)azetidin-3-yl)benzonitrile] | 44 nM | 80.2%
15 | O=C1CCC(N2Cc3cc(O[C@H]4CCCC[C@@H]4N4CC(c5ccc(F)cc5)C4)ccc3C2=O)C(=O)N1 (stereo partly drawn) [Compound 123, 3-(5-(((1S,2S)-2-(3-(4-fluorophenyl)azetidin-1-yl)cyclohexyl)oxy)-1-oxoisoindolin-2-yl)piperidine-2,6-dione] | 11 nM | 74.4%
16 | O=C1CCC(N2Cc3cc(O[C@@H]4CCCC[C@H]4N4CCC4c4ccccc4)ccc3C2=O)C(=O)N1 (stereo partly drawn) [Compound 54, 3-(1-oxo-5-(((1R,2R)-2-(2-phenylazetidin-1-yl)cyclohexyl)oxy)isoindolin-2-yl)piperidine-2,6-dione] | 89 nM | <15%
17 | N#Cc1ccc(C2CN([C@H]3CCCC[C@@H]3Oc3ccc4c(c3)CN(C3CCC(=O)NC3=O)C4=O)C2)c(F)c1 (mixture of isomers) [Compound 116, Rac-4-(1-((trans)-2-((2-(2,6-dioxopiperidin-3-yl)-1-oxoisoindolin-5-yl)oxy)cyclohexyl)azetidin-3-yl)-3-fluorobenzonitrile] | 24 nM | <15%
